# Patent publication US9724351B2, “Compounds for the treatment of paramoxyvirus viral infections” (priority 2012, dated 2017)
# pEC50: −log10 of the molar value.
# Assays:
# [1] = Cytotoxicity Determination; assay type: cell-based; conditions: human, HEp-2 cells, without addition of virus, CCK-8 readout, bins (Table 4: greater than 100 μM; Table 5: equal to or less than 100 μM and greater than 10 μM), read-out: 50% cytotoxicity concentration (CC50)
# Procedure: In order to determine the compound cytotoxicity, in parallel, each of the compounds is applied to duplicate wells in a 384-well cell plate at serial final concentrations starting from 100 μM using ½ stepwise dilutions for 7 points without addition of virus. Incubate the cells at 37° C., 5% CO2 for 5 days. Add 6 μl CCK-8 into each well and incubate in a CO2 incubator at 37° C. for 3-4 hours. Read the plates to obtain the optical densities which are used to calculate 50% cytotoxicity concentration (CC50).
# [2] = tested on: Respiratory Syncytial Virus (RSV) long strain (ATCC#VR-26); assay: RSV Antiviral Assay (CPE reduction assay); assay type: cell-based; conditions: human respiratory syncytial virus, 120 h; HEp-2 cells infected with RSV long strain, 5 days, CCK-8 readout; bins (Table 2: less than 1 μM; Table 3: equal to or higher than 1 μM and less than 50 μM); read-out: 50% effective concentration (EC50)
# Procedure: CPE reduction assays are performed as described by Sidwell and Huffman et al., Appl. Microbiol. (1971) 22(5):797-801 with slight modifications. HEp-2 cells (ATCC#, CCL-23) are seeded at a density of 1,500 cells/30 μl/well into the 384-well cell plate(s) (Corning#3701) one day prior to the assay. Compounds are added into 384-well cell plates by Labcyte POD 810 Plate Assembler system. Each of the test compounds is provided to duplicate wells of a 384-well cell plate at final concentrations starting from 100 μM or 1 μM using ⅓ stepwise dilutions for 9 points. Quick-thaw Respiratory Syncytial Virus (RSV) long strain (ATCC#VR-26) stock in a 37° C. water bath. Place on ice until ready to use. Viruses are diluted to the concentration of 100 TCID50/30 μl with medium and 30 μl diluted RSV are added into related wells of 384-well cell plates. For each plate, sixteen wells are set aside as uninfected, untreated cell controls (CC), and nine wells per test plate receive virus only as a control for virus replication (VC). The final DMSO concentration of all wells is 1%. Place the plates at 37° C., 5% CO2 for 5 days.
# After 5 days incubation, observe the CPE of cells in all wells. […] Six μl of cell counting kit-8 reagent (CCK-8, Dojindo Molecular Technologies Inc., CK04-20) are added to each well, which allows colorimetric assays to determine the number of viable cells through the dehydrogenase activity detection. After 3-4 hour incubation, the absorbance of each well is measured with a spectrophotometric plate reader at 450 nm wavelength, using a 630 nm filter as background according to manufacturer's instruction. The 50% effective concentration (EC50) is calculated by using regression analysis, based on the mean O.D. at each concentration of compound.
compound,measurement,setting,value
COc1ccc(C(=O)NCC(=O)N/N=C2\CCOc3ccccc32)cc1OC [Compound 452],CC50 at 5 days,[1],> 100 µM
same,pEC50,[2],4.30 to 6.00
COc1ccc(C(=O)NCC(=O)N/N=C2\CCSc3ccccc32)cc1OC [Compound 451],CC50 at 5 days,[1],> 100 µM
same,pEC50,[2],4.30 to 6.00
CCCC/C(=N\NC(=O)CNC(=O)c1ccc(OCC)c(OC)c1)c1csc2c(F)cccc12 [Compound 462A],CC50 at 5 days,[1],> 100 µM
same,pEC50,[2],> 6.00
COc1ccc(C(=O)NCC(=O)N/N=C(\C)c2noc3ccccc23)cc1OC [Compound 491],CC50 at 5 days,[1],> 100 µM
same,pEC50,[2],4.30 to 6.00
COc1cc(C(=O)NCC(=O)c2ccc(OC)c(-c3ccc(F)c(Cl)c3)n2)ccc1-c1cnn(C)c1 [Compound 2651],CC50 at 5 days,[1],10 to 100 µM
same,pEC50,[2],4.30 to 6.00
COc1ccc(C(=O)NCC(=O)N/N=C/c2csc3ccccc23)cc1OC [Compound 401],CC50 at 5 days,[1],10 to 100 µM
same,pEC50,[2],4.30 to 6.00
COc1ccc(C(=O)NCC(=O)N/N=C(\CCO)c2csc3c(F)cccc23)cc1OC [Compound 400-13],CC50 at 5 days,[1],> 100 µM
same,pEC50,[2],4.30 to 6.00
COc1ccc(C(=O)NCC(=O)c2ccc(OC)c(-c3ccc(C(F)(F)F)cc3)n2)cc1OC [Compound 1531],CC50 at 5 days,[1],> 100 µM
same,pEC50,[2],> 6.00
COc1cc(C(=O)NCC(=O)c2cc(C(C)C)cc(-c3csc4c(F)cccc34)n2)ccc1OCCO [Compound 1227],CC50 at 5 days,[1],10 to 100 µM
same,pEC50,[2],> 6.00
COc1cc(-c2nc(C(=O)CNC(=O)c3ccc(OCCO)c(OC)c3)ccc2OC)ccc1F [Compound 1329],CC50 at 5 days,[1],> 100 µM
same,pEC50,[2],> 6.00
COc1cc(C(=O)NCC(=O)c2ccc3c(n2)-c2c(sc4c(F)cccc24)CO3)ccc1OCCO [Compound 2703],CC50 at 5 days,[1],10 to 100 µM
same,pEC50,[2],4.30 to 6.00
COc1ccc(C(=O)NCC(=O)c2ccc(OC)c(-c3ccc4scnc4c3)n2)cc1OC [Compound 1539],CC50 at 5 days,[1],> 100 µM
same,pEC50,[2],4.30 to 6.00
COc1cc(C(=O)NC(C)C(=O)c2ccc(OC)c(-c3ccc(F)c(Cl)c3)n2)ccc1OCCO (centres unmarked) [Compound 1839],CC50 at 5 days,[1],10 to 100 µM
same,pEC50,[2],> 6.00
COc1ccc(C(=O)NCC(=O)N/N=C2\CCCc3[nH]c4ccccc4c32)cc1OC [Compound 414],CC50 at 5 days,[1],10 to 100 µM
same,pEC50,[2],4.30 to 6.00
COc1ccc(C(=O)NCC(=O)NN=C(c2ccccn2)c2ccccn2)cc1OC [Compound 441],CC50 at 5 days,[1],> 100 µM
same,pEC50,[2],4.30 to 6.00
COc1ccc(C(=O)NCC(=O)c2ccc(OC)c(-c3cncnc3)n2)cc1OC [Compound 1520],CC50 at 5 days,[1],> 100 µM
same,pEC50,[2],4.30 to 6.00
COc1ccc(C(=O)NCC(=O)c2ccc(OC)c(-c3ccc4[nH]c(C)nc4c3)n2)cc1OC [Compound 1521],CC50 at 5 days,[1],10 to 100 µM
same,pEC50,[2],4.30 to 6.00
COc1cc(C(=O)NCC(=O)c2cc(CO)cc(-c3csc4c(F)cccc34)n2)ccc1OCCO [Compound 1255],CC50 at 5 days,[1],10 to 100 µM
same,pEC50,[2],> 6.00
COc1cc(C(=O)NCC(=O)N/N=C(\C)c2csc3ccccc23)ccc1OCC1CC1 [Compound 510],CC50 at 5 days,[1],10 to 100 µM
same,pEC50,[2],> 6.00
COc1ccc(C(=O)NCC(=O)N/N=C2\CCCc3sc4ccccc4c32)cc1OC [Compound 446],CC50 at 5 days,[1],> 100 µM
same,pEC50,[2],> 6.00
COc1cc(C(=O)N[C@@H](C)C(=O)c2ccc(OC)c(-c3ccc(F)c(C(F)(F)F)c3)n2)ccc1OCCO [Compound 1812],CC50 at 5 days,[1],10 to 100 µM
same,pEC50,[2],> 6.00
COc1cc(C(=O)N[C@H](CO)C(=O)c2ccc(OC)c(-c3ccc(F)c(Cl)c3)n2)ccc1OCCO [Compound 1831],CC50 at 5 days,[1],10 to 100 µM
same,pEC50,[2],> 6.00
COc1cc(C(=O)NCC(=O)c2cc(N(C)C)cc(-c3csc4c(F)cccc34)n2)ccc1OCCO [Compound 1245],CC50 at 5 days,[1],> 100 µM
same,pEC50,[2],> 6.00
COc1ccc(C(=O)NCC(=O)c2ccc(OC)c(-c3ccc(C#N)cc3)n2)cc1OC [Compound 1505],CC50 at 5 days,[1],> 100 µM
same,pEC50,[2],> 6.00
COc1cc(C(=O)NCC(=O)c2ccc(OC)c(-c3c[nH]c4c(F)cccc34)n2)ccc1OCCO [Compound 1342],CC50 at 5 days,[1],> 100 µM
same,pEC50,[2],> 6.00
COc1ccc(C(=O)NCC(=O)c2ccc(OC)c(-c3ccc(F)cc3)n2)cc1OC [Compound 1515],CC50 at 5 days,[1],> 100 µM
same,pEC50,[2],> 6.00
COc1ccc(C(=O)NCC(=O)N/N=C(\C)c2csc3ccccc23)c(OC)c1OC [Compound 481],CC50 at 5 days,[1],> 100 µM
same,pEC50,[2],4.30 to 6.00
COc1ccc(C(=O)NCC(=O)c2cc(Cl)cc(-c3csc4c(F)cccc34)n2)cc1OC [Compound 2604],CC50 at 5 days,[1],> 100 µM
same,pEC50,[2],4.30 to 6.00
CCN(CC)c1cc(C(=O)NCC(=O)N/N=C(\C)c2csc3ccccc23)cs1 [Compound 511],CC50 at 5 days,[1],10 to 100 µM
same,pEC50,[2],4.30 to 6.00
COc1ccc(C(=O)NCC(=O)c2cc(C(C)C)cc(-c3csc4c(F)cccc34)n2)cc1OC [Compound 1200],CC50 at 5 days,[1],> 100 µM
same,pEC50,[2],> 6.00
COc1ccc(C(=O)NCC(=O)c2cc(N(C)C)cc(-c3csc4c(F)cccc34)n2)cc1OC [Compound 1221],CC50 at 5 days,[1],> 100 µM
same,pEC50,[2],> 6.00
COc1ccc(C(=O)NCC(=O)c2ccc3ccccc3n2)cc1OC [Compound 1701],CC50 at 5 days,[1],> 100 µM
same,pEC50,[2],4.30 to 6.00
COc1ccc(C(=O)NCC(=O)N/N=C(\CCO)c2csc3ccccc23)cc1OC [Compound 492],CC50 at 5 days,[1],> 100 µM
same,pEC50,[2],> 6.00
COc1cc(C(=O)NCC(=O)c2ccc(OC)c(-c3ccc(F)c(C(F)(F)F)c3)n2)ccc1OCCO [Compound 1614],CC50 at 5 days,[1],> 100 µM
same,pEC50,[2],> 6.00
COc1ccc(C(=O)NCC(=O)N/N=C(\C)c2csc3ccc(O)cc23)cc1OC [Compound 400-8],CC50 at 5 days,[1],10 to 100 µM
same,pEC50,[2],4.30 to 6.00
COc1cc(NCCC(=O)N(C)/N=C/c2csc3c(F)cccc23)ccc1OCCO [Compound 2305],CC50 at 5 days,[1],10 to 100 µM
same,pEC50,[2],4.30 to 6.00
COc1cc(C(=O)NCC(=O)c2cccc(-c3csc4c(F)cccc34)n2)ccc1O [Compound 1226],CC50 at 5 days,[1],10 to 100 µM
same,pEC50,[2],4.30 to 6.00
CCCC/C(=N\NC(=O)CNC(=O)c1ccc(OC)c(OC)c1)c1csc2ccccc12 [Compound 423],CC50 at 5 days,[1],> 100 µM
same,pEC50,[2],> 6.00
COc1ccc(C(=O)NCC(=O)c2ccc(OC)c(-c3c(C)ccnc3Cl)n2)cc1OC [Compound 1511],CC50 at 5 days,[1],10 to 100 µM
same,pEC50,[2],4.30 to 6.00
COc1cc(C(=O)NCC(=O)c2ccc(OC)c(-c3csc4c(F)cccc34)n2)ccc1OCCF [Compound 2625],CC50 at 5 days,[1],> 100 µM
same,pEC50,[2],> 6.00
COc1ccc(C(=O)NCC(=O)c2ccc(OC)c(-c3csc(C(=O)O)c3)n2)cc1OC [Compound 1537],CC50 at 5 days,[1],> 100 µM
same,pEC50,[2],4.30 to 6.00
CCN(CC)c1ccc(C(=O)NCC(=O)c2ccc(OC)c(-c3ccc(F)c(Cl)c3)n2)cc1 [Compound 1320],CC50 at 5 days,[1],> 100 µM
same,pEC50,[2],4.30 to 6.00
CCCn1cc(-c2csc3c(F)cccc23)nc1C(=O)CNC(=O)c1ccc(OC)c(OC)c1 [Compound 1355],CC50 at 5 days,[1],10 to 100 µM
same,pEC50,[2],4.30 to 6.00
COc1ccc(C(=O)NCC(=O)c2ccc(OC)c(-c3cccc4ccccc34)n2)cc1OC [Compound 1513],CC50 at 5 days,[1],10 to 100 µM
same,pEC50,[2],4.30 to 6.00
COc1cc(C(=O)NCC(=O)c2ccc(OC)c(-c3ccc(F)c(Br)c3)n2)ccc1OCc1cnc[nH]1 [Compound 1333],CC50 at 5 days,[1],10 to 100 µM
same,pEC50,[2],> 6.00
CCCn1nc(C(=O)CNC(=O)c2ccc(OC)c(OC)c2)nc1-c1csc2c(F)cccc12 [Compound 1205],CC50 at 5 days,[1],10 to 100 µM
same,pEC50,[2],4.30 to 6.00
CCOCC/C(=N\NC(=O)CNC(=O)c1ccc(OC)c(OC)c1)c1csc2ccccc12 [Compound 400-1],CC50 at 5 days,[1],> 100 µM
same,pEC50,[2],> 6.00
COCCOc1ccc(C(=O)NCC(=O)N/N=C(\CCOC)c2csc3c(F)cccc23)cc1OC [Compound 513],CC50 at 5 days,[1],> 100 µM
same,pEC50,[2],> 6.00
COc1ccc(C(=O)NCC(=O)c2ccc(OC)c(-c3ccc(N4CCOCC4)cc3)n2)cc1OC [Compound 1506],CC50 at 5 days,[1],10 to 100 µM
same,pEC50,[2],4.30 to 6.00
COc1cc(C(=O)NCC(=O)c2ccc(OC)c(-c3ccc(Cl)c(Cl)c3)n2)ccc1OCCF [Compound 2627],CC50 at 5 days,[1],> 100 µM
same,pEC50,[2],> 6.00
CCc1ccc(C(=O)CNC(=O)c2ccc(OCCO)c(OC)c2)nc1-c1csc2c(F)cccc12 [Compound 2106],CC50 at 5 days,[1],10 to 100 µM
same,pEC50,[2],> 6.00
COc1ccc(C(=O)CNC(=O)c2ccc(OCCO)cc2)nc1-c1ccc(F)c(Cl)c1 [Compound 1308],CC50 at 5 days,[1],> 100 µM
same,pEC50,[2],4.30 to 6.00
